The test system of one series is CT26. As to the kind of experiment: Antiproliferative activity against mouse CT26 cells assessed as reduction in cell viability after 72 hrs by MTT assay. To be noted: CT26, 72 h. Type of series: functional, cell-based.
In series [1] the target is Protein kinase C zeta type (Homo sapiens) (UniProt Q05513). Put plainly: Inhibition of recombinant human PKCzeta (2 to end residues) assessed as residual activity at 10 uM using ERMRPRKRQGSVRRRV as substrate measured after 40 mins in presence of [gamma33P]ATP by scintillation counting method.
The target of series [2] is Serine/threonine-protein kinase NIM1 (Homo sapiens) (UniProt Q8IY84). Put plainly: Inhibition of recombinant full-length human NIM1 assessed as residual activity at 10 uM using KKKVSRSGLYRSPSMPENLNRPR as substrate measured after 40 mins in presence of [gamma33P]ATP by scintillation counting method.
Series [3] deals with MAP kinase-activated protein kinase 3 (Homo sapiens) (UniProt Q16644). As to the kind of experiment: Inhibition of recombinant human MAPKAPK3 (2 to end residues) assessed as residual activity at 10 uM using KKLNRTLSVA as substrate measured after 40 mins in presence of [gamma33P]ATP by scintillation counting method.
For series [4], the species on record is Homo sapiens. Put plainly: Inhibition of recombinant full-length human PI3K p110delta/p85alpha N253S mutant assessed as residual activity at 10 uM using phosphatidylinositol-4, 5-bisphosphate as substrate measured after 40 mins by fluorescence assay.
In series [5] the test system is Serine/threonine-protein kinase B-raf (Homo sapiens), P15056 [V600E]. As to the kind of experiment: Inhibition of recombinant human BRAF V599E mutant (416 to end residues) assessed as residual activity at 10 uM using myelin basic protein as substrate measured after 40 mins in presence of [gamma33P]ATP by scintillation counting method.
Series [6] addresses Citron Rho-interacting kinase (Homo sapiens) (UniProt O14578). As to the kind of experiment: Inhibition of recombinant human CRIK assessed as residual activity at 10 uM using KKLRRTLSVA as substrate measured after 120 mins in presence of [gamma33P]ATP by scintillation counting method.
In series [7] the test system is Tyrosine-protein kinase ABL1 (Homo sapiens), P00519 [Q252H]. Put plainly: Inhibition of recombinant human ABL Q252H mutant (27 to end residues) assessed as residual activity at 10 uM using EAIYAAPFAKKK as substrate measured after 40 mins in presence of [gamma33P]ATP by scintillation counting method.
The target of series [8] is Calcium/calmodulin-dependent protein kinase type II subunit beta (Homo sapiens) (UniProt Q13554). As to the kind of experiment: Inhibition of recombinant full-length human CaMK2beta (1 to 315 residues) assessed as residual activity at 10 uM using calmodulin as substrate measured after 40 mins in presence of [gamma33P]ATP by scintillation counting method.
For series [9], the target named is Ephrin type-A receptor 2 (Homo sapiens) (UniProt P29317). Put plainly: Inhibition of recombinant human EphA2 (596 to 900 residues) assessed as residual activity at 10 uM using poly(Glu, Tyr) 4:1 as substrate measured after 40 mins in presence of [gamma33P]ATP by scintillation counting method.
The species named for series [10] is Homo sapiens. As to the kind of experiment: Inhibition of recombinant human Flt4 V1128L/H1146R mutant (800 to end residues) assessed as residual activity at 10 uM using GGEEEEYFELVKKKK as substrate measured after 40 mins in presence of [gamma33P]ATP by scintillation counting method.
Series [11] deals with G protein-coupled receptor kinase 6 (Homo sapiens) (UniProt P43250). As to the kind of experiment: Inhibition of recombinant full-length human GRK6 assessed as residual activity at 10 uM using casein as substrate measured after 40 mins in presence of [gamma33P]ATP by scintillation counting method.
For series [12], the target named is Mitogen-activated protein kinase 8 (Homo sapiens) (UniProt P45983). Put plainly: Inhibition of recombinant full-length human JNK1alpha1 assessed as residual activity at 10 uM using ATF2 as substrate measured after 40 mins in presence of [gamma33P]ATP by scintillation counting method.
Series [13] has as its target Dual specificity mitogen-activated protein kinase kinase 4 (Homo sapiens) (UniProt P45985). Put plainly: Inhibition of recombinant human MKK4 (34 to end residues) assessed as residual activity at 10 uM using unactive JNK1a1 as substrate measured after 40 mins in presence of [gamma33P]ATP by scintillation counting method.
Series [14] deals with Serine/threonine-protein kinase MARK2 (Homo sapiens) (UniProt Q7KZI7). As to the kind of experiment: Inhibition of recombinant full-length human PAR1Balpha assessed as residual activity at 10 uM using KKKVSRSGLYRSPSMPENLNRPR as substrate measured after 40 mins in presence of [gamma33P]ATP by scintillation counting method.
Series [15] deals with Platelet-derived growth factor receptor beta (Homo sapiens) (UniProt P09619). Put plainly: Inhibition of recombinant human PDGFRbeta (557 to end residues) assessed as residual activity at 10 uM using poly(Glu, Tyr) 4:1 as substrate measured after 40 mins in presence of [gamma33P]ATP by scintillation counting method.
For series [16], the system named is Phosphorylase b kinase gamma catalytic chain, liver/testis isoform (Homo sapiens), P15735 [F290L]. As to the kind of experiment: Inhibition of recombinant human PhKgamma2 F290L mutant (1 to 301 residues) assessed as residual activity at 10 uM using KKLNRTLSFAEPG as substrate measured after 40 mins in presence of [gamma33P]ATP by scintillation counting method.

The target of series [17] is Receptor-interacting serine/threonine-protein kinase 2 (Homo sapiens) (UniProt O43353). Put plainly: Inhibition of human RIPK2 (1 to 299 residues) using myelin basic protein as substrate measured after 120 mins in presence of [gamma33P]ATP by scintillation counting method. Details: scale not given: the % may be the effect or the level left.
Series [18] deals with DNA-dependent protein kinase catalytic subunit (Homo sapiens) (UniProt P78527). As to the kind of experiment: Inhibition of recombinant full-length human DNA-PK assessed as residual activity at 10 uM using GST-cMyc-p53 as substrate measured after 40 mins by fluorescence assay.
Series [19] addresses PI3-kinase p110-alpha/p85-alpha (Homo sapiens) (UniProt P27986+P42336). Put plainly: Inhibition of recombinant full-length human PI3K p110alpha/p85alpha assessed as residual activity at 10 uM using phosphatidylinositol-4, 5-bisphosphate as substrate measured after 40 mins by fluorescence assay. Type of series: protein-complex assay.
The species entered for series [20] is Homo sapiens. As to the kind of experiment: Inhibition of recombinant full-length human PI3K p110alpha/p65alpha (1 to 571 residues) assessed as residual activity at 10 uM using phosphatidylinositol-4, 5-bisphosphate as substrate measured after 40 mins by HTRF assay.
Series [21] can be described thus: Toxicity in nude BALB/c mouse assessed as change in glucose level at 40 to 80 mg/kg, po once daily for 4 weeks measured post-last dose. To be noted: in vivo, 672 h. Type of series: organism-based.
Series [22] is described as follows: Toxicity in nude BALB/c mouse assessed as change in uric acid level at 40 to 80 mg/kg, po once daily for 4 weeks measured post-last dose. Type of series: organism-based. The following applies: in vivo, 672 h.
The target in the next series is Tubulin (Sus scrofa) (UniProt P02554+P02550). Put plainly: Inhibition of porcine brain tubulin polymerization at 0.05 to 30 uM by fluorescence assay.

The source made the active and inactive calls. The rule behind the calls is not given here.

Chain of Ephrin type-A receptor 2 (Homo sapiens) (P29317 whole entry, the tested form may be a part): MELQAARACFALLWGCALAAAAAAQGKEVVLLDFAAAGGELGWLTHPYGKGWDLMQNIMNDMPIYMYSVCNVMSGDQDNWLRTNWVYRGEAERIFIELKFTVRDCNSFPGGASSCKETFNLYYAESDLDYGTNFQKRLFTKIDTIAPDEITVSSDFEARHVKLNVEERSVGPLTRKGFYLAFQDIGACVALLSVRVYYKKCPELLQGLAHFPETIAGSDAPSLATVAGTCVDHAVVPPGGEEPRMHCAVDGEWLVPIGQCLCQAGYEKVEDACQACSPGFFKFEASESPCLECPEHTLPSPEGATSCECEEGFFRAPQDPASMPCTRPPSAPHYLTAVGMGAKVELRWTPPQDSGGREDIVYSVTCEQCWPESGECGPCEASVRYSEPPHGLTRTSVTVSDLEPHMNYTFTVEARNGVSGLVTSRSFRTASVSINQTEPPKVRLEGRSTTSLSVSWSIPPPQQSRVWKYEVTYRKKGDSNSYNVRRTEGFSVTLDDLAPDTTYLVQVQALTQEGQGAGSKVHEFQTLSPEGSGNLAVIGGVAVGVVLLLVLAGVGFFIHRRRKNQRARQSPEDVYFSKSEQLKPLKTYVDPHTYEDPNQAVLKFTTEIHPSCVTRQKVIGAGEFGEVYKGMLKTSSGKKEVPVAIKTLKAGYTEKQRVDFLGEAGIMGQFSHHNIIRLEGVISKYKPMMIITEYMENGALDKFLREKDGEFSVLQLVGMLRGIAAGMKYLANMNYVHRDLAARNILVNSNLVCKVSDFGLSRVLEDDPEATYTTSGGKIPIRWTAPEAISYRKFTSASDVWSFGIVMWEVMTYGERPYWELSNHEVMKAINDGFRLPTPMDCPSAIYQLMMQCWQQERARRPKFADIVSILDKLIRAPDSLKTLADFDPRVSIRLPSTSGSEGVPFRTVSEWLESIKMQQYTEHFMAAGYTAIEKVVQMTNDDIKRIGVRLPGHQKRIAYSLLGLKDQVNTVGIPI
Chain of DNA-dependent protein kinase catalytic subunit (Homo sapiens) (P78527 whole entry): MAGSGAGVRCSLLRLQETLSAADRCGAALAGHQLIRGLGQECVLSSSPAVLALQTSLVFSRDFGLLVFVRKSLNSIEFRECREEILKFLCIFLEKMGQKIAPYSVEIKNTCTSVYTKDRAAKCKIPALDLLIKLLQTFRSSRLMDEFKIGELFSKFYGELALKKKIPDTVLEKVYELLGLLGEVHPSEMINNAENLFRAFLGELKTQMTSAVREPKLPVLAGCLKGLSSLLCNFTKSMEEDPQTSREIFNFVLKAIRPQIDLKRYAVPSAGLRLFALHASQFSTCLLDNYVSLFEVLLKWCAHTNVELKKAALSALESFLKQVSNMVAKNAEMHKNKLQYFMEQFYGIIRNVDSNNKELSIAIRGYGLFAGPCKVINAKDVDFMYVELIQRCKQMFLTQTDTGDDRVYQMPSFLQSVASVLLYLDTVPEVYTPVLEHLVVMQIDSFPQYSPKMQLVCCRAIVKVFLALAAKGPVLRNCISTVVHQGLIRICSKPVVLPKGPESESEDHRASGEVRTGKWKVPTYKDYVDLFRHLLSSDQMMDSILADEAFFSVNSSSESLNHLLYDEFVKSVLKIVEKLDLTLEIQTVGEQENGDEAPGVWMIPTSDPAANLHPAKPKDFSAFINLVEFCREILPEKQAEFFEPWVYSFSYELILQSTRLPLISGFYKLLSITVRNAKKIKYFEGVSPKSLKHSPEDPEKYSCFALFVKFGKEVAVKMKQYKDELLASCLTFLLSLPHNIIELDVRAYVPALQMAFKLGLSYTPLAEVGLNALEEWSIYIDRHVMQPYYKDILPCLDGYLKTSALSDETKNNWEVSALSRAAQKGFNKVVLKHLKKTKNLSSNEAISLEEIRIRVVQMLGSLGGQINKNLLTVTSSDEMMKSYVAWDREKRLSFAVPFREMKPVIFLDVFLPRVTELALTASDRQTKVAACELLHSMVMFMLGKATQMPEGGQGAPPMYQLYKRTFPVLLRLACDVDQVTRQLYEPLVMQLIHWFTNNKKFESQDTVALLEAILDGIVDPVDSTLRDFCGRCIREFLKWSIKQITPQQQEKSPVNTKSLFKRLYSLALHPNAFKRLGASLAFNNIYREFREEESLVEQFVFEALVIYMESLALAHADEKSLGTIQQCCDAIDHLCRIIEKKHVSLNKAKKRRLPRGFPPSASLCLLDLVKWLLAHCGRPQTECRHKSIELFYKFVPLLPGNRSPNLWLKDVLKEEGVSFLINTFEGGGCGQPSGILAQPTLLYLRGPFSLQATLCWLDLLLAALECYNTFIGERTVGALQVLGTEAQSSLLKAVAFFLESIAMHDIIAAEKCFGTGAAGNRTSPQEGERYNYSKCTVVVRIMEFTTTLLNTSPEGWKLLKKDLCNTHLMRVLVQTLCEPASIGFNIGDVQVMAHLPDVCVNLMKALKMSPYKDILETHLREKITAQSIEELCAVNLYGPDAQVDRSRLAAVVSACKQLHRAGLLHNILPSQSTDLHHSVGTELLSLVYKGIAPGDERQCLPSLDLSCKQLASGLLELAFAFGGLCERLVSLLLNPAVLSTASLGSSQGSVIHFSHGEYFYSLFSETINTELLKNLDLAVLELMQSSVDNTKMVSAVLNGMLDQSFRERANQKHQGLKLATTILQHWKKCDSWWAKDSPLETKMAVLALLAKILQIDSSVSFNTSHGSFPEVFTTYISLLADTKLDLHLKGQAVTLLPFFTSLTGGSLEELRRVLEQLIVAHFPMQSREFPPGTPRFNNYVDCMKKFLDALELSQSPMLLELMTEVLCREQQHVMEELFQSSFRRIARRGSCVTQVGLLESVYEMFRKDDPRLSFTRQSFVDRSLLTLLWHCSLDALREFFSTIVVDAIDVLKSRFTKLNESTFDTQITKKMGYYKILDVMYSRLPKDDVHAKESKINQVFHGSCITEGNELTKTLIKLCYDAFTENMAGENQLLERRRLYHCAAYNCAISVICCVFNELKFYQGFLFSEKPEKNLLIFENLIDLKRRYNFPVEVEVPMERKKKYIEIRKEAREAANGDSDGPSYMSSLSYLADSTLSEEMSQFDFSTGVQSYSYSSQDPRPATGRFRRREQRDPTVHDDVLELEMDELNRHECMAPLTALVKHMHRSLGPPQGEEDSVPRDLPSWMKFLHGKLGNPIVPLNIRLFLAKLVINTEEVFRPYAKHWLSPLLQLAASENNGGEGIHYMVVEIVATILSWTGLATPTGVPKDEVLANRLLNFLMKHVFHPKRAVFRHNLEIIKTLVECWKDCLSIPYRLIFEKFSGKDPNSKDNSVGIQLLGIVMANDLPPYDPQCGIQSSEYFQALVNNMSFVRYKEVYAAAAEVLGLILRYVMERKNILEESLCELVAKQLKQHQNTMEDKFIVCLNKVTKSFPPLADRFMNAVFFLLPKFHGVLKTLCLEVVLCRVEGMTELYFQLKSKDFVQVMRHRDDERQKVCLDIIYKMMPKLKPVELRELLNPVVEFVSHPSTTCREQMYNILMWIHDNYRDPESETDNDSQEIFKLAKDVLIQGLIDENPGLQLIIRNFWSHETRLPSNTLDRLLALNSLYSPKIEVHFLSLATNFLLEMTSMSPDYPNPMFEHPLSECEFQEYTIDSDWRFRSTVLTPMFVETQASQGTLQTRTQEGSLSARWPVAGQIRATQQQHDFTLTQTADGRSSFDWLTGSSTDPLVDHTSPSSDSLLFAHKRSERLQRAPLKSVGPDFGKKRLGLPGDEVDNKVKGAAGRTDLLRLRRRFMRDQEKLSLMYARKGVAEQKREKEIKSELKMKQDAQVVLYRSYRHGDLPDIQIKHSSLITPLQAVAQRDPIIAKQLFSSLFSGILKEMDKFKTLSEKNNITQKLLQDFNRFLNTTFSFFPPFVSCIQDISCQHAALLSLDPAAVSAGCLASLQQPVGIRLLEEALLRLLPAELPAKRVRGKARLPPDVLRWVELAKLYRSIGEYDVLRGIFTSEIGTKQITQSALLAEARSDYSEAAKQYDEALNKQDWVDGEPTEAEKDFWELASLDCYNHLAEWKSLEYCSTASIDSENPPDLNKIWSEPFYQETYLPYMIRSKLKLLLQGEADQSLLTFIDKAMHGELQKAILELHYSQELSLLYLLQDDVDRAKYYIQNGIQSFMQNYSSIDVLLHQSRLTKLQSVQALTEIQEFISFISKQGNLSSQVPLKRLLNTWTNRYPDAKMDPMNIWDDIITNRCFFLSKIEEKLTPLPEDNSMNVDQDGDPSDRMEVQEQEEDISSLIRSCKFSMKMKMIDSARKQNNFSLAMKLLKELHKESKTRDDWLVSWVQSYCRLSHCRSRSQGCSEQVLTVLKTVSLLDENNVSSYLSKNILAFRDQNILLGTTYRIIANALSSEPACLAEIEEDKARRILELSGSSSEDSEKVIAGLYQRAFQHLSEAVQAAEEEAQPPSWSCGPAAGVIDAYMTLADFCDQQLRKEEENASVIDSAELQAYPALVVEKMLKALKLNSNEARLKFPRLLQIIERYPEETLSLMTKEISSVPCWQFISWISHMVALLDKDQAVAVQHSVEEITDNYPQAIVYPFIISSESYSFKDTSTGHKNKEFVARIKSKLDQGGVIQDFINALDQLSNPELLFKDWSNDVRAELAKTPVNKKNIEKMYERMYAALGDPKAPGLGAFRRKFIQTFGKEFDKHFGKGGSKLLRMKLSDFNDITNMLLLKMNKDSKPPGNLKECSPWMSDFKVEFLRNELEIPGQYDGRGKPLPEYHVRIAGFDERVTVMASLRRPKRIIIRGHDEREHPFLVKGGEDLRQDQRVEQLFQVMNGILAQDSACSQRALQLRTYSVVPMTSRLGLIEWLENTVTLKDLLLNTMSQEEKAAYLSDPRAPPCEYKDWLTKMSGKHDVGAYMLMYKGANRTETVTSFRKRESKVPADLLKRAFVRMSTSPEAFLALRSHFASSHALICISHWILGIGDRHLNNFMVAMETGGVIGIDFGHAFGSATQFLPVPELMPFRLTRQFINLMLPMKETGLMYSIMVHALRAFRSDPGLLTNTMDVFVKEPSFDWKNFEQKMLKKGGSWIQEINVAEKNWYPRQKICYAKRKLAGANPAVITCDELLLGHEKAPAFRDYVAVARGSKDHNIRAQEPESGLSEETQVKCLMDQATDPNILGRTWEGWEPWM

Regarding `Cc1cc(C)c(CNc2nc(Cl)nc3c2ncn3C2CCCC2)c(=O)[nH]1`, the IC50 with CT26 turned out to be 45.5 nM. The Activity in series [1] stood at 99.5%; in [2] it was 106%; in series [3] it was 106%; in the series filed under Homo sapiens [4], 99.5%; in [5], 108%; in series [6] it was 109%. Further, the Activity in [7] was found to be 106%; in series [8], 99.5%; in [9] it was 91%; in the series listed under Homo sapiens [10], 104%; in series [11], 104%; in series [12], 96%. Moreover, the Activity in series [13] came out at 133%; in series [14] it was 95.5%; in series [15] it was 117%; in series [16], 92%; in [17], 106%; in series [18] it was 99%. The Activity in series [19] is 99.5%; in the series filed under Homo sapiens [20], 93%; in series [21] it was “Non-Toxic”; in [22] it was “Non-Toxic”. Moreover, the inhibition entry on Tubulin (Sus scrofa) is “Active”.

(Values after ChEMBL document CHEMBL4311992, “Discovery of 3-(((9H-purin-6-yl)amino)methyl)-4,6-dimethylpyridin-2(1H)-one derivatives as novel tubulin polymerization inhibitors for treatment of cancer” (Eur J Med Chem, 2019).)
